Measured values taken from patent publication US20230117592A1 (SRI International, priority 2019, published 2023).
Where “and” joins values, the source holds several entries; their conditions need not be identical. Equal values may be shown once. Read-outs that look alike come from different tables or passages of the source.

How the values were obtained:
12-LOX = molecular target: T1, 12-LOX (Homo sapiens, UniProt P18054); assay: 12-LOX fluorescent assay (in vitro lipoxygenase inhibition); format: biochemical
T1 sequence (P18054 1-663): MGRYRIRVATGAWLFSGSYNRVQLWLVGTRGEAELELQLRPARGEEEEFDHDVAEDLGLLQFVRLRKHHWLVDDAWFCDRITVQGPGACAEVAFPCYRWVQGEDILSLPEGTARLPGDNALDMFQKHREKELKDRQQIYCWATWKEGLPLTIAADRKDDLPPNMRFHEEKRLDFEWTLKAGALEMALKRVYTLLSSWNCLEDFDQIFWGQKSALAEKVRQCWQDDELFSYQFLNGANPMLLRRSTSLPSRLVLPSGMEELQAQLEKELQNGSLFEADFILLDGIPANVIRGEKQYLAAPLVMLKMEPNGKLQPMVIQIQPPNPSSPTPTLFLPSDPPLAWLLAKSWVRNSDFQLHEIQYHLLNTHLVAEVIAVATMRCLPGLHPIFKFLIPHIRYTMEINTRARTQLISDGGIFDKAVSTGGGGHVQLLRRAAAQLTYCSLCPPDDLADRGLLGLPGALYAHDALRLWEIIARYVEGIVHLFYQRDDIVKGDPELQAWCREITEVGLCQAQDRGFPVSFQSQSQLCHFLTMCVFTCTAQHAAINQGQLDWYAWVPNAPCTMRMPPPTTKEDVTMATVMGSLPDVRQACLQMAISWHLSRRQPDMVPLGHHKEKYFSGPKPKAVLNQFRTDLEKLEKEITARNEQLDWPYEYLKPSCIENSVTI
Protocol: 12-LOX/15-LOX Fluorescent Assay
The enzyme assay (100 ul) contained 50 mM Tris, pH 7.5, 0.05% Tween-20, 20 μM AA/LA, 1 μM DHR123, and 100 nM recombinant 12-LOX enzyme/50 nM recombinant 15-LOX enzyme. Inhibitors (dissolved in DMSO) were plated at 1 μL into 96-well assay microplates followed by a 40 μL addition of a solution containing 12-LOX/15-LOX enzyme. Enzyme was pre-incubated with compounds for 15 mins. The assay was initiated by the addition of a 40 μL substrate solution containing AA/LA, and 20μL addition of a solution containing DHR123. […] Percent inhibition was calculated for each compound dose for IC50 curve fitting using 4 Parameter Logistic Model or Sigmoidal Dose-Response Model.

5-LOX = molecular target: T2, 5-LOX (Homo sapiens, UniProt P09917); assay: 5-LOX fluorescent assay (in vitro lipoxygenase inhibition); format: biochemical
T2 sequence (P09917 1-674): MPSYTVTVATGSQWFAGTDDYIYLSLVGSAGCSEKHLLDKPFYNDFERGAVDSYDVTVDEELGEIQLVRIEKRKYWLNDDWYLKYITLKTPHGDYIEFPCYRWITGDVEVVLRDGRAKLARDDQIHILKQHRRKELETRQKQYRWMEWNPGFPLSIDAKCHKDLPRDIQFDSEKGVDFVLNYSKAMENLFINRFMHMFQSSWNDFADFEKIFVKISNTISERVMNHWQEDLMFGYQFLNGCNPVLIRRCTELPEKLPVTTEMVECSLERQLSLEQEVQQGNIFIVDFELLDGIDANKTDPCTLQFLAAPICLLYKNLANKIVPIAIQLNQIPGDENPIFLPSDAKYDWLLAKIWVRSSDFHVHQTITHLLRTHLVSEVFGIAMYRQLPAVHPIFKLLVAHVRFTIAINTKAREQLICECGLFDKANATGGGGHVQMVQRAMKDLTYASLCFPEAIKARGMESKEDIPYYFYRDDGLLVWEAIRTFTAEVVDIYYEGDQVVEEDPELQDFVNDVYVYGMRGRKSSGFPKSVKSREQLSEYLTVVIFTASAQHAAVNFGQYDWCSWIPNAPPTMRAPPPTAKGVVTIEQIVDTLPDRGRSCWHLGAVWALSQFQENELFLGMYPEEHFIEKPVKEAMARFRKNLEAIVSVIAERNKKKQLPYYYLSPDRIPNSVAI
Protocol: 5-LOX FI assay Fluorescent Assay
The enzyme assay (100 μL) contained 50 mM Tris, pH 7.5, 0.1 mM EDTA, 0.3 mM CaCl2, 20 μM AA, 100 μM ATP, 1 μM DHR123, and recombinant 5-LOX cell lysate (0.5 μL/100 μL). Inhibitors (dissolved in DMSO) were plated at 1 μL into 96-well assay microplates followed by a 40 μL addition of a solution containing 5-LOX enzyme. Enzyme was pre-incubated with compounds for 15 mins. The assay was initiated by the addition of a 40 μL substrate solution containing AA and ATP, and 20 μL addition of a solution containing DHR123. […] Percent inhibition was calculated for each compound dose for IC50 curve fitting using 4 Parameter Logistic Model or Sigmoidal Dose-Response Model.

[1] = 100 nM recombinant 12-LOX, 20 μM AA, DHR123 fluorescence, several values in a cell = repeat determinations, read-out: IC50 (μM) values for in vitro lipoxygenase inhibition, 12-LOX
[2] = recombinant 5-LOX cell lysate, 20 μM AA, DHR123 fluorescence, several values in a cell = repeat determinations, read-out: IC50 (μM) values for in vitro lipoxygenase inhibition, 5-LOX

Row | SMILES | IC50 (12-LOX; [1]) | IC50 (5-LOX; [2]) | IC50 (12-LOX) | IC50 (5-LOX)
1 | CN(C)CCCc1cc(Nc2ccc(F)cc2Cl)c(F)cc1Nc1ccc(F)cc1Cl [SS20308-0199-01, N^1,N^4-bis(2-chloro-4-fluorophenyl)-2-(3-(dimethylamino)propyl)-5-fluorobenzene-1,4-diamine] | 0.51 µM | 0.68 µM |  | 
2 | Fc1ccc(CNc2cc(F)c(NCCn3cncn3)c(-c3ccccc3)c2)cc1 [SS20308-0227-01, N^2-(2-(1H-1,2,4-triazol-1-yl)ethyl)-3-fluoro-N^5-(4-fluorobenzyl)-[1,1′-biphenyl]-2,5-diamine] | 0.03 µM | 0.39 µM |  | 
3 | c1ccc(Nc2ccc(NCCCn3cncn3)c(-c3ccccc3)c2)cc1 [SS20308-0151-01, N^2-(3-(1H-1,2,4-triazol-1-yl)propyl)-N^5-phenylbiphenyl-2,5-diamine] |  | 0.07 µM and 0.04 µM | 0.02 µM | 
4 | Fc1ccc(Nc2ccc(NCC3(Cn4cncn4)COC3)c(C(F)(F)F)c2)c(Cl)c1 [SS20308-0279-01, N^1-((3-((1H-1,2,4-triazol-1-yl)methyl)oxetan-3-yl)methyl)-N^4-(2-chloro-4-fluorophenyl)-2-(trifluoromethyl)benzene-1,4-diamine] | 0.28 µM | 0.64 µM |  | 
5 | Cn1nccc1-c1ccc(Nc2ccccc2)cc1NCCn1cncn1 [SS20308-0190-01, N^3-(2-(1H-1,2,4-triazol-1-yl)ethyl)-4-(1-methyl-1H-pyrazol-5-yl)-N^1-phenylbenzene-1,3-diamine] | 0.93 µM | 1.35 µM |  | 
6 | Fc1ccc(Nc2ccc(NCC3(CN4CCOCC4)COC3)c(C(F)(F)F)c2)cc1 | 0.04 µM | 0.06 µM |  | 
7 | Fc1ccc(CNc2ccc(NCCn3cncn3)c(-c3cccc4cc[nH]c34)c2)cc1 [SS20308-0225-01, N^1-(2-(1H-1,2,4-triazol-1-yl)ethyl)-N^4-(4-fluorobenzyl)-2-(1H-indol-7-yl)benzene-1,4-diamine] | 0.03 µM | 0.05 µM |  | 
8 | Fc1ccc(Nc2ccc(NCCn3cncn3)cn2)cc1 [SS20308-0248-01, N^5-(2-(1H-1,2,4-triazol-1-yl)ethyl)-N^2-(4-fluorophenyl)pyridine-2,5-diamine] | 0.1 µM | 0.63 µM |  | 
9 | CCOC(=O)c1ccc(Nc2cccc(Nc3ccccc3)c2OCCn2cncn2)cc1 [SS20308-0055-01, ethyl 4-(2-(2-(1H-1,2,4-triazol-1-yl)ethoxy)-3-(phenylamino)phenylamino)benzoate] | 1.64 µM | 3.33 µM |  | 
10 | CN(C)CCCc1c(Nc2ccccc2)cccc1-c1cccc2c1NCC2 [SS20308-0172-01, 2-(3-(dimethylamino)propyl)-3-(indolin-7-yl)-N-phenylaniline] | 0.36 µM | 0.23 µM |  | 
11 | c1ccc(CNc2ccc(NCCn3cncn3)c(-c3cccs3)n2)cc1 [SS20308-0218-01, N^5-(2-(1H-1,2,4-triazol-1-yl)ethyl)-N^2-benzyl-6-(thiophen-2-yl)pyridine-2,5-diamine] | 0.01 µM | 0.02 µM |  | 
12 | COc1ccc(CNc2cccc(Nc3ccccc3)c2OCCN(C)C)cc1 [SS20308-0052-01, 2-(2-(dimethylamino)ethoxy)-N^1-(4-methoxybenzyl)-N^3-phenylbenzene-1,3-diamine] | 0.62 µM | 1.32 µM |  | 
13 | FC(F)(F)c1cc(NC2(c3ccccc3)COC2)ccc1NCCN1CCOCC1 [SS20308-0317-01, N^1-(2-morpholinoethyl)-N^4-(3-phenyloxetan-3-yl)-2-(trifluoromethyl)benzene-1,4-diamine] | 0.32 µM | 0.57 µM |  | 
14 | c1ccc(Nc2cnc(-c3ccccc3)c(NCCn3cncn3)c2)cc1 [SS20308-0173-01, N^3-(2-(1H-1,2,4-triazol-1-yl)ethyl)-N^5,2-diphenylpyridine-3,5-diamine] | 1.09 µM | 2.22 µM |  | 
15 | FC1(F)CCC(CNc2cccc(NCCn3cncn3)n2)CC1 [SS20308-0250-01, N^2-(2-(1H-1,2,4-triazol-1-yl)ethyl)-N^6-((4,4-difluorocyclohexyl)methyl)pyridine-2,6-diamine] | 0.32 µM | 1.26 µM |  | 
16 | c1ccc(Nc2ccc(-c3ccccc3)c(NCCCn3cncn3)c2)cc1 [SS20308-0178-01, N^2-(3-(1H-1,2,4-triazol-1-yl)propyl)-N^4-phenylbiphenyl-2,4-diamine] |  |  | 0.09 µM and 0.11 µM and 0.07 µM and 0.14 µM | 150 nM and 210 nM (2×) and 90 nM
17 | Cc1cccc(C)c1-c1ccc(Nc2ccccc2)cc1NCCn1cncn1 [SS20308-0133-01, N2-(2-(1H-1,2,4-triazol-1-yl)ethyl)-2′,6′-dimethyl-N4-phenyl-[1,1′-biphenyl]-2,4-diamine] | 0.14 µM | 0.22 µM |  | 
18 | c1ncn(CC2(CNc3ccc(NCC4CCCCC4)cc3)COC2)n1 [SS20308-0242-01, N^1-((3-((1H-1,2,4-triazol-1-yl)methyl)oxetan-3-yl)methyl)-N^4-(cyclohexylmethyl)benzene-1,4-diamine] | 0.05 µM | 0.09 µM |  | 
19 | Cc1cc(Nc2ccc(Cl)c(F)c2)ccc1NCC1(CN2CCCC2)COC1 [SS20308-0324-01, N^4-(4-chloro-3-fluorophenyl)-2-methyl-N^1-((3-(pyrrolidin-1-ylmethyl)oxetan-3-yl)methyl)benzene-1,4-diamine] | 0.03 µM | 0.15 µM and 0.44 µM |  | 
20 | c1ccc(CNc2ccc(-c3ccccc3)c(NCCn3cncn3)c2)cc1 [SS20308-0096-01, N^2-(2-(1H-1,2,4-triazol-1-yl)ethyl)-N^4-benzyl-[1,1′-biphenyl]-2,4-diamine] | 0.24 µM | 0.55 µM |  | 
21 | c1ccc(-c2cc(NCC3CCCCC3)ccc2NCCn2cncn2)cc1 [SS20308-0217-01, N^2-(2-(1H-1,2,4-triazol-1-yl)ethyl)-N^5-(cyclohexylmethyl)-[1,1′-biphenyl]-2,5-diamine] | 0.02 µM and 0.04 µM | 0.02 µM and 0.06 µM |  | 
22 | FC(F)(F)C(Nc1ccc(NCCCN2CCOCC2)c(C2CCOCC2)c1)c1ccccc1 (centres unmarked) [SS20308-0315-01, N^1-(3-morpholinopropyl)-2-(tetrahydro-2H-pyran-4-yl)-N^4-(2,2,2-trifluoro-1-phenylethyl)benzene-1,4-diamine] | 0.06 µM | 0.07 µM |  | 
23 | O=C(Nc1ccc(NCCn2cncn2)c(-c2ccccc2)c1)c1ccccc1 [SS20308-0146-01, N-(6-((2-(1H-1,2,4-triazol-1-yl)ethyl)amino)-[1,1′-biphenyl]-3-yl)benzamide] | 4.02 µM | 3.77 µM |  | 
24 | c1ccc(Nc2ccc(C3CCCO3)c(NCCn3cncn3)c2)cc1 (centres unmarked) [SS20308-0195-01, N^3-(2-(1H-1,2,4-triazol-1-yl)ethyl)-N^1-phenyl-4-(tetrahydrofuran-2-yl)benzene-1,3-diamine] | 0.36 µM | 0.76 µM |  | 
25 | CN(C)CCCc1ccc(Nc2ccccc2Cl)c(Nc2ccccc2Cl)c1 [SS20308-0198-01, N^1,N^2-bis(2-chlorophenyl)-4-(3-(dimethylamino)propyl)benzene-1,2-diamine] | 0.32 µM | 0.25 µM |  | 
